Data on eight compounds can be found in patent publication US9120749B2, “Quinoline derivatives and MELK inhibitors containing the same” (ONCOTHERAPY SCIENCE, INC., priority 2010, dated 2015).

One experiment deals with MELK (Homo sapiens, UniProt Q14680). The experiment in a line: Kinase assay: MELK activity, phosphorylation of FITC-labeled histone H3 peptide measured by IMAP fluorescence polarization. It is filed as biochemical. Particulars: 50 micro-M ATP, FITC-labeled histone H3 peptide substrate, IMAP fluorescence polarization; read-out: IC50 (μM) (kinase assay). In short, it runs like this:
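Kinase reactions ran with or without test compound (final DMSO 1%) on a fluorescein-tagged H3 peptide. Progressive binding solution was added to terminate them. After a half-hour room-temperature incubation, polarization was measured.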

A further experiment relates to T47D cells. The experiment can be described thus: Cell-based assay: anti-proliferative activity, Cell Counting Kit-8, 72 hours (T47D). Particulars: Homo sapiens, T47D, 72 h, MELK-expressing, Cell Counting Kit-8 at 72 hours. In short, it runs like this: (§1)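 First, lysates underwent western blotting with anti-MELK antibody to establish expression. Next, cells went into 96-well plates. Then candidate inhibitors were added. Finally, viability was determined by CCK-8 at 72 h and IC50 computed.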
(Tetrazolium dyes change colour on reduction, which living cells bring about.)

The test system of another experiment is A549 cells. The experiment can be described thus: Cell-based assay: anti-proliferative activity, Cell Counting Kit-8, 72 hours (A549). As to conditions: Homo sapiens, A549, 72 h, MELK-expressing, Cell Counting Kit-8 at 72 hours. An outline of the steps:
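A549 cells seeded in 96-well plates and exposed to candidate inhibitors for 72 hours. Growth measured with Cell Counting Kit-8; IC50 values calculated from the dose response.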

Another experiment has as its system HT-1197 cells. The experiment in a line: Cell-based assay: anti-proliferative activity, Cell Counting Kit-8, 72 hours (HT-1197, negative control without MELK expression). Particulars: Homo sapiens, HT1197, 72 h, HT1197 cells, no MELK expression (negative control); Cell Counting Kit-8 at 72 hours. In short, it runs like this: as §1
The test system of a further experiment is BT-549 cells. The experiment can be described thus: Cell-based assay: anti-proliferative activity, Cell Counting Kit-8, 72 hours (BT-549). As to conditions: Homo sapiens, BT-549, 72 h, BT549 cells, MELK-expressing; Cell Counting Kit-8 at 72 hours. In short, it runs like this:
as §1

MELK, sequence (Q14680 whole entry, looked up): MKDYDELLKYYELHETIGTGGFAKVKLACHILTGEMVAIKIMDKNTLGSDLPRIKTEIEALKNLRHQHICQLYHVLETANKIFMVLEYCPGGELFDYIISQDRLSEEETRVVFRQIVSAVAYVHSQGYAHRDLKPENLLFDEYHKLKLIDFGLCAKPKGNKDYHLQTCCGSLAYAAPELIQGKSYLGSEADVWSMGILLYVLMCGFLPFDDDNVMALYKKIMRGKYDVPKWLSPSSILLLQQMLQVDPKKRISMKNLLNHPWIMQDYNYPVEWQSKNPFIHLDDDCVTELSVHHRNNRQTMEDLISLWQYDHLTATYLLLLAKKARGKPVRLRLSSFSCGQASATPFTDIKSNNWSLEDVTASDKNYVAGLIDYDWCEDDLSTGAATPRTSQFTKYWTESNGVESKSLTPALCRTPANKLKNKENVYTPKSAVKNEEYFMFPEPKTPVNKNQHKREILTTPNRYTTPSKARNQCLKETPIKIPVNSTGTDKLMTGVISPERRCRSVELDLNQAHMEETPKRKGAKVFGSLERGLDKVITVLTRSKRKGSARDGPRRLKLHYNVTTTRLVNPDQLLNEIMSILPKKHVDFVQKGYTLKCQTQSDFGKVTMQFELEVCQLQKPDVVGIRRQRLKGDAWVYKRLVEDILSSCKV

`CC(=O)c1cnc2ccc(-c3cc(F)c(O)c(F)c3)cc2c1N[C@H]1CC[C@H](N)CC1` [Example 258, 1-{4-[trans-4-Aminocyclohexylamino]-6-(3,5-difluoro-4-hydroxyphenyl)quinolin-3-yl}ethanone]: the IC50 at MELK was determined as 0.04 µM; in the experiment with T47D cells it was 0.071 µM; in the experiment on A549 cells, 0.85 µM; in the experiment with HT-1197 cells, 100 µM; in the experiment with BT-549 cells, 0.16 µM.

Regarding `CCN(CC)C1CCC(Nc2c(C(=O)C3CC3)cnc3ccc(-c4ccc(O)c(OC)c4)cc23)CC1` (stereo not shown) [Example 193, Cyclopropyl{4-[4-(diethylamino)cyclohexylamino]-6-(4-hydroxy-3-methoxyphenyl)quinolin-3-yl}methanone], the IC50 on MELK is 0.007 µM; in the experiment on T47D cells, 0.52 µM; in the experiment on A549 cells, 0.59 µM; with HT-1197 cells, 4.2 µM; with BT-549 cells it was 2 µM.

Regarding `CCN(CC)C1CCC(Nc2c(C(C)=O)cnc3ccc(-c4ccc(O)c(Cl)c4)cc23)CC1` (stereo not shown) [Example 335, 1-{6-(3-Chloro-4-hydroxyphenyl)-4-[4-(diethylamino)cyclohexylamino]quinolin-3-yl}ethanone], the IC50 at MELK was 0.021 µM; with T47D cells, 0.1 µM; in the experiment with A549 cells, 0.29 µM; with HT-1197 cells, 1.2 µM; in the experiment on BT-549 cells, 0.65 µM.

For the compound `COc1cc(-c2ccc3ncc(C(=O)C4CC4)c(NC45CC6CC(CC(N)(C6)C4)C5)c3c2)cc(Cl)c1O` [Example 309, {6-(3-Chloro-4-hydroxy-5-methoxyphenyl)-4-[(3-amino)adamantylamino]quinolin-3-yl}(cyclopropyl)methanone], the IC50 at MELK was 0.0087 µM; in the experiment with T47D cells it was 0.32 µM; in the experiment on A549 cells, 0.28 µM; in the experiment with HT-1197 cells it was 0.5 µM; in the experiment with BT-549 cells, 0.49 µM.

In the case of `COc1cc(-c2ccc3ncc(C(=O)C4CC4)c(N4CCC(N5CCN(C)CC5)CC4)c3c2)cc(Cl)c1O` [Example 351, {6-(3-Chloro-4-hydroxy-5-methoxyphenyl)-4-[4-(4-methylpiperazin-1-yl)piperidin-1-yl]quinolin-3-yl}(cyclopropyl)methanone], the IC50 at MELK is 0.0022 µM; in the experiment on T47D cells, 0.34 µM; in the experiment with A549 cells, 0.33 µM; in the experiment on HT-1197 cells, 3 µM; in the experiment on BT-549 cells, 0.67 µM.

As for `CN(C)[C@H]1CC[C@H](CNc2c(C(=O)C3CC3)cnc3ccc(-c4cc(Cl)c(O)c(Cl)c4)cc23)CC1` [Example 325, Cyclopropyl[6-(3,5-dichloro-4-hydroxyphenyl)-4-{[trans-4-(dimethylamino)cyclohexyl]methylamino}quinolin-3-yl]methanone], the IC50 at MELK came to 0.011 µM; in the experiment with T47D cells, 0.78 µM; in the experiment with A549 cells, 0.62 µM; in the experiment on HT-1197 cells it was 10 µM; in the experiment on BT-549 cells, 1.9 µM.

Turning to `CCN(CC)C1CCC(Nc2c(C(=O)C3CC3)cnc3ccc(-c4ccc(O)c(Cl)c4)cc23)CC1` (stereo not shown) [Example 192, {6-(3-Chloro-4-hydroxyphenyl)-4-[4-(diethylamino)cyclohexylamino]quinolin-3-yl}(cyclopropyl)methanone], the IC50 was 0.011 µM at MELK; 0.57 µM in the experiment on T47D cells; 0.42 µM with A549 cells; 2.2 µM in the experiment with HT-1197 cells; 1.3 µM in the experiment on BT-549 cells.

As to `O=C(c1cnc2ccc(-c3ccc(O)c(Cl)c3)cc2c1N1CCC(CN2CCOCC2)CC1)C1CC1` [Example 332, {6-(3-Chloro-4-hydroxyphenyl)-4-[4-(morpholinomethyl)piperidin-1-yl]quinolin-3-yl}(cyclopropyl)methanone], the IC50 stood at 0.035 µM at MELK; 0.67 µM with T47D cells; 0.55 µM in the experiment with A549 cells; 10 µM in the experiment on HT-1197 cells; 1.5 µM in the experiment on BT-549 cells.

What is called IC50 is the concentration at which inhibition is half-maximal.
